From patent US7078195B2, “Antibiotics AA-896” (Wyeth Holdings Corporation, priority 2001, dated 2006)

Tests used:
[1] = system: Staphylococcus aureus Smith; assay: Acute lethal infection in mice; assay type: in vivo
Experimental: (§1) The antibacterial efficacy of AA-896-A1 in vivo against acute lethal infection in mice is established by infecting mice with Staphylococcus aureus Smith or Streptococcus pneumoniae. The mice are treated with AA-896-A1.

Streptococcus pneumoniae = assay: Acute lethal infection in mice; assay type: in vivo
Experimental: as §1

E. coli GC 2203 = assay: Broth dilution MIC; assay type: cell-based; details: Mueller-Hinton broth, 18 hours at 35° C.
In short: (§2)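 Compounds are serially diluted in Mueller-Hinton broth, then a bacterial suspension is added. After incubation at 35° C for 18 hours, the lowest inhibitory concentration is recorded as MIC.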

E. faecalis GC 842 = assay: Broth dilution MIC; assay type: cell-based; details: Mueller-Hinton broth, 18 hours at 35° C.
In short: as §2

E. coli GC 3226 = assay: Broth dilution MIC; assay type: cell-based; details: Mueller-Hinton broth, 18 hours at 35° C.
In short: as §2

P. aeruginosa GC 2214 = assay: Broth dilution MIC; assay type: cell-based; details: Mueller-Hinton broth, 18 hours at 35° C.
In short: as §2

E. faecalis GC 242 = assay: Broth dilution MIC; assay type: cell-based; details: Mueller-Hinton broth, 18 hours at 35° C.
In short: as §2

P. rettgeri GC 4530 = assay: Broth dilution MIC; assay type: cell-based; details: Mueller-Hinton broth, 18 hours at 35° C.
In short: as §2

S. aureus GC 2216 = assay: Broth dilution MIC; assay type: cell-based; details: Mueller-Hinton broth, 18 hours at 35° C.
In short: as §2

CNS GC 4547 = assay: Broth dilution MIC; assay type: cell-based; details: Mueller-Hinton broth, 18 hours at 35° C.
In short: as §2

M. morganii GC 4531 = assay: Broth dilution MIC; assay type: cell-based; details: Mueller-Hinton broth, 18 hours at 35° C.
In short: as §2

K. pneumoniae GC 4534 = assay: Broth dilution MIC; assay type: cell-based; details: Mueller-Hinton broth, 18 hours at 35° C.
In short: as §2

E. coli GC 4560 = assay: Broth dilution MIC; assay type: cell-based; details: Mueller-Hinton broth, 18 hours at 35° C.
In short: as §2

E. faecalis GC 4555 = assay: Broth dilution MIC; assay type: cell-based; details: Mueller-Hinton broth, 18 hours at 35° C.
In short: as §2

S. marcescens GC 4077 = assay: Broth dilution MIC; assay type: cell-based; details: Mueller-Hinton broth, 18 hours at 35° C.
In short: as §2

E. coli GC 4559 = assay: Broth dilution MIC; assay type: cell-based; details: Mueller-Hinton broth, 18 hours at 35° C.
In short: as §2

P. aeruginosa GC 4532 = assay: Broth dilution MIC; assay type: cell-based; details: Mueller-Hinton broth, 18 hours at 35° C.
In short: as §2

CNS GC 4538 = assay: Broth dilution MIC; assay type: cell-based; details: Mueller-Hinton broth, 18 hours at 35° C.
In short: as §2

CNS GC 4537 = assay: Broth dilution MIC; assay type: cell-based; details: Mueller-Hinton broth, 18 hours at 35° C.
In short: as §2

E. cloacae GC 3783 = assay: Broth dilution MIC; assay type: cell-based; details: Mueller-Hinton broth, 18 hours at 35° C.
In short: as §2

S. aureus GC 1131 = assay: Broth dilution MIC; assay type: cell-based; details: Mueller-Hinton broth, 18 hours at 35° C.
In short: as §2

S. aureus GC 4536 = assay: Broth dilution MIC; assay type: cell-based; details: Mueller-Hinton broth, 18 hours at 35° C.
In short: as §2

E. faecalis GC 2242 = assay: Broth dilution MIC; assay type: cell-based; details: Mueller-Hinton broth, 18 hours at 35° C.
In short: as §2

| Compound | Antimicrobial Activity (MIC) (E. coli GC 2203) | Antimicrobial Activity (MIC) (E. faecalis GC 842) | Antimicrobial Activity (MIC) (E. coli GC 3226) | Antimicrobial Activity (MIC) (P. aeruginosa GC 2214) | Antimicrobial Activity (MIC) (P. rettgeri GC 4530) | Antimicrobial Activity (MIC) (S. aureus GC 2216) | Antimicrobial Activity (MIC) (CNS GC 4547) | Antimicrobial Activity (MIC) (M. morganii GC 4531) | Antimicrobial Activity (MIC) (K. pneumoniae GC 4534) | Antimicrobial Activity (MIC) (E. coli GC 4560) | Antimicrobial Activity (MIC) (E. faecalis GC 4555) | Antimicrobial Activity (MIC) (S. marcescens GC 4077) | Antimicrobial Activity (MIC) (E. coli GC 4559) | Antimicrobial Activity (MIC) (P. aeruginosa GC 4532) | Antimicrobial Activity (MIC) (CNS GC 4538) | Antimicrobial Activity (MIC) (CNS GC 4537) | Antimicrobial Activity (MIC) (E. cloacae GC 3783) | Antimicrobial Activity (MIC) (S. aureus GC 1131) | Antimicrobial Activity (MIC) (S. aureus GC 4536) | Antimicrobial Activity (MIC) (E. faecalis GC 2242) | also measured |
| --- | --- | --- | --- | --- | --- | --- | --- | --- | --- | --- | --- | --- | --- | --- | --- | --- | --- | --- | --- | --- | --- |
| 5-O-[5-Amino-5-deoxy-2-O-methyl-β-D-ribofuranosyl]-6-[[3-[3-[[13-(carbamimidoylhydroxy-amino)tridecanoyl]oxy]-2-[2-[[(1-carboxy-2-methylpropyl)carbamoyl]amino]-2-(hexahydro-2-iminopyrimidin-4-yl)acetamido]-4-methylpentanamido]propyl]amino]-1,6-dideoxy-1-(3,4-dihydro-2,4-dioxopyrimidin-1(2H)-yl)-β-D-heptofuranuronic acid [AA-896-A1] | 16 µg/mL | 32 µg/mL | 8 µg/mL | 16 µg/mL | >32 µg/mL | 8 µg/mL | 4 µg/mL | >32 µg/mL | >32 µg/mL | <=0.03 μg/ml | 16 µg/mL | >32 µg/mL | 32 µg/mL | 32 µg/mL | 1 µg/mL | 2 µg/mL | 0.5 µg/mL | 4 µg/mL | 4 µg/mL |  | ED50 range (95% confidence limit) [1]: 0.83 to 1.46 mg/kg; ED50 range (95% confidence limit) (Streptococcus pneumoniae): 8.0 to 16.0 mg/kg; Antimicrobial Activity (MIC) (E. faecalis GC 242): 32 µg/mL |
| COC1C(OC(C(NCCCNC(=O)C(CC(C)C)NC(=O)C(NC(=O)NC(C(=O)O)C(C)C)C2CCNC(=N)N2)C(=O)O)C2OC(n3ccc(=O)[nH]c3=O)C(O)C2O)OC(CN)C1O [AA-896-D1, 5-O-[5-Amino-5-deoxy-2-O-methyl-β-D-ribofuranosyl]-6-[[3-[2-[2-[[(1-carboxy-2-methyl-propyl)carbamoyl]amino]-2-(hexahydro-2-iminopyrimidin-4-yl)acetamido]-4-methyl-pentanamido]propyl]amino]-1,6-dideoxy-1-(3,4-dihydro-2,4-dioxopyrimidin-1(2H)-yl)-β-D-heptofuranuronic acid] | >32 µg/mL | >32 µg/mL | 32 µg/mL | 32 µg/mL | >32 µg/mL | >32 µg/mL | >32 µg/mL | >32 µg/mL | >32 µg/mL | 1 µg/mL | >32 µg/mL | >32 µg/mL | >32 µg/mL | 32 µg/mL | >32 µg/mL | >32 µg/mL | 32 µg/mL | >32 µg/mL | >32 µg/mL | >32 µg/mL |  |
| CC(C)CC(NC(=O)C(NC(=O)NC(C(=O)O)C(C)C)C1CCNC(=N)N1)C(=O)NCCCNC(C(=O)O)C(OC1CC(O)C(CN)O1)C1OC(n2ccc(=O)[nH]c2=O)C(O)C1O [AA-896-D3, 5-O-[5-Amino-2,5-dideoxy-β-D-ribofuranosyl]-6-[[3-[2-[2-[[(1-carboxy-2-methylpropyl)-carbamoyl]amino]-2-(hexahydro-2-iminopyrimidin-4-yl)acetamido]-4-methylpentanamido]-propyl]amino]-1,6-dideoxy-1-(3,4-dihydro-2,4-dioxopyrimidin-1(2H)-yl)-β-D-heptofuran-uronic acid] | 32 µg/mL | >32 µg/mL | 32 µg/mL | 32 µg/mL | >32 µg/mL | >32 µg/mL | >32 µg/mL | >32 µg/mL | >32 µg/mL | 0.25 µg/mL | >32 µg/mL | >32 µg/mL | >32 µg/mL | >32 µg/mL | >32 µg/mL | >32 µg/mL | >32 µg/mL | >32 µg/mL | >32 µg/mL | >32 µg/mL |  |
| CC(C)C(NC(=O)NC(C(=O)NC(C(=O)NCCCNC(C(=O)O)C(OC1CC(O)C(CN)O1)C1OC(n2ccc(=O)[nH]c2=O)C(O)C1O)C(O)C(C)C)C1CCNC(=N)N1)C(=O)O [AA-896-C3, 5-O-[5-Amino-2,5-dideoxy-β-D-ribofuranosyl]-6-[[3-[2-[2-[[(1-carboxy-2-methylpropyl)-carbamoyl]amino]-2-(hexahydro-2-iminopyrimidin-4-yl)acetamido]-3-hydroxy-4-methyl-pentanamido]propyl]amino]-1,6-dideoxy-1-(3,4-dihydro-2,4-dioxopyrimidin-1(2H)-yl)-β-D-heptofuranuronic acid] | 16 µg/mL | >32 µg/mL | 32 µg/mL | 16 µg/mL | >32 µg/mL | >32 µg/mL | >32 µg/mL | >32 µg/mL | >32 µg/mL | 0.5 µg/mL | >32 µg/mL | >32 µg/mL | 32 µg/mL | 32 µg/mL | >32 µg/mL | >32 µg/mL | 8 µg/mL | >32 µg/mL | >32 µg/mL | >32 µg/mL |  |
